Measured values taken from PubChem BioAssay AID1845200 (Molecular Pharmacology Branch, DTP, NCI, 2023).

Tested on: ASPS-1 complex tumor spheroids, viability
Experiment: Anticancer human tumor ASPS-1 cell line growth inhibition;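 also: spheroids exposed to agents for 7 days after 3 days of growth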;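 as to viability, T/C: 100% = DMSO vehicle treated spheroids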
Settings: for IC50: curve of first compound; for viability, T/C: stronger effect = lower value; active = viability on the fitted dose curve at most 10% of control; inactive = the rest
Procedure, shortened: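 Complex spheroids of malignant cells with endothelial cells and mesenchymal stem cells; agents alone or combined, from near clinical Cmax (or 10 microM if unknown) down in half-log steps, 0.25% DMSO final.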

CC1COCCN1c1cc(-c2ccnn2C)c2ccnc(-c3ccn[nH]3)c2n1 (stereo not given) + CC[C@@]1(O)C(=O)OCc2c1cc1n(c2=O)Cc2cc3c(CN(C)C)c(O)ccc3nc2-1
inactive: viability, T/C (second compound 0.003 µM, first compound 0.0316 µM) 73.9% | viability, T/C (second compound 0.003 µM, first compound 0.1 µM) 59.1% | viability, T/C (second compound 0.003 µM, first compound 0.316 µM) 46.2% | viability, T/C (second compound 0.003 µM, first compound 1 µM) 44.5% | viability, T/C (second compound 0.003 µM, first compound 3.16 µM) 47.8% | viability, T/C (second compound 0.003 µM, first compound 10 µM) 43.5% | viability, T/C (second compound 0.00949 µM, first compound 0.0316 µM) 56.9% | viability, T/C (second compound 0.00949 µM, first compound 0.1 µM) 48.7% | viability, T/C (second compound 0.00949 µM, first compound 0.316 µM) 39.9% | viability, T/C (second compound 0.00949 µM, first compound 1 µM) 40.1% | viability, T/C (second compound 0.00949 µM, first compound 3.16 µM) 46.8% | viability, T/C (second compound 0.00949 µM, first compound 10 µM) 42.3% | viability, T/C (second compound 0.03 µM, first compound 0.0316 µM) 38.7% | viability, T/C (second compound 0.03 µM, first compound 0.1 µM) 35.1% | viability, T/C (second compound 0.03 µM, first compound 0.316 µM) 35.8% | viability, T/C (second compound 0.03 µM, first compound 1 µM) 39.6% | viability, T/C (second compound 0.03 µM, first compound 3.16 µM) 42.1% | viability, T/C (second compound 0.03 µM, first compound 10 µM) 42.5% | viability, T/C (second compound 0.0949 µM, first compound 0.0316 µM) 26.7% | viability, T/C (second compound 0.0949 µM, first compound 0.1 µM) 26.5% | viability, T/C (second compound 0.0949 µM, first compound 0.316 µM) 28.7% | viability, T/C (second compound 0.0949 µM, first compound 1 µM) 34.1% | viability, T/C (second compound 0.0949 µM, first compound 3.16 µM) 41.9% | viability, T/C (second compound 0.0949 µM, first compound 10 µM) 36.4% | viability, T/C (second compound 0.3 µM, first compound 0.0316 µM) 23.3% | viability, T/C (second compound 0.3 µM, first compound 0.1 µM) 23.2% | viability, T/C (second compound 0.3 µM, first compound 0.316 µM) 23.5% | viability, T/C (second compound 0.3 µM, first compound 1 µM) 33.8% | viability, T/C (second compound 0.3 µM, first compound 3.16 µM) 44.6% | viability, T/C (second compound 0.3 µM, first compound 10 µM) 38.6%
< 0.0316 µM: IC50 (second compound 0.03 µM) | IC50 (second compound 0.0949 µM) | IC50 (second compound 0.3 µM)
0.224 µM: IC50 (second compound 0.003 µM)
0.0608 µM: IC50 (second compound 0.00949 µM)
